Test results taken from US9586931B2 (Merck Sharp & Dohme Corp., priority 2012, dated 2017).

target: T1, recombinant human GST-Syk (Homo sapiens, UniProt P43405); assay: Homogeneous Time-Resolved Fluorescence (HTRF) assay for the recombinant human Syk enzyme; type: biochemical; conditions: recombinant human GST-Syk 5 pM, ATP 25 μM, 10-dose titration 10 μM to 0.508 nM; read-out: rhSYK Activity IC50
T1 construct: purchased Carna Biosciences 08-176
In short: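 Detection used time-resolved fluorescence 30 min after adding a quench mix (40 mM EDTA, 15 mM Tris pH 7.5, 0.01% Tween 20) containing 2 nM Europium anti-pTyr antibody and 70 nM streptavidin-APC. This followed 45 min of room-temperature peptide phosphorylation by recombinant GST-tagged human Syk.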

IC50 | Compound
23.1 nM | Cc1cc(Nc2cc(C(F)(F)F)ccn2)nc(-c2cn([C@H](C)C(=O)NCC(N)=O)nn2)c1 [Example 1.21, (2R)-N-(2-amino-2-oxoethyl)-2-[4-(4-methyl-6-{[4-(trifluoromethyl)pyridin-2-yl]amino}pyridin-2-yl)-1H-1,2,3-triazol-1-yl]propanamide]
15.4 nM | Cc1cc(Nc2nccc(C(F)F)n2)cc(-c2cn(C3CCCCC3(C)O)nn2)c1 (single isomer, unassigned) [Example 7.20, 2-[4-(3-{[4-(difluoromethyl)pyrimidin-2-yl]amino}-5-methylphenyl)-1H-1,2,3-triazol-1-yl]-1-methylcyclohexanol]
2 nM | Cc1cc(Nc2nccc(C)n2)cc(-c2cn(C[C@](C)(O)CO)nn2)c1 (single isomer, unassigned) [Example 21.2, 2-methyl-3-(4-(3-methyl-5-((4-methylpyrimidin-2-yl)amino)phenyl)-1H-1,2,3-triazol-1-yl)propane-1,2-diol]
85.8 nM | Cc1cc(Nc2cc(C)c(F)cn2)nc(-c2cn(CC(C)(O)C(C)(C)O)nn2)c1 (stereo not drawn) [Example 21.22, 1-(4-{6-[(5-fluoro-4-methylpyridin-2-yl)amino]-4-methylpyridin-2-yl}-1H-1,2,3-triazol-1-yl)-2,3-dimethylbutane-2,3-diol]
12.8 nM | Cc1cc(Nc2nccc(C(F)F)n2)cc(-c2cn(CC3OC(=O)NC3C)nn2)c1 (single isomer, unassigned) [Example 7.41, 5-{[4-(3-{[4-(difluoromethyl)pyrimidin-2-yl]amino}-5-methylphenyl)-1H-1,2,3-triazol-1-yl]methyl}-4-methyl-1,3-oxazolidin-2-one]
61.3 nM | Cc1cc(Nc2nccc(C(F)(F)F)n2)cc(-c2cn(CC(=O)O)nn2)c1 [Example 5.58, [4-(3-methyl-5-{[4-(trifluoromethyl)pyrimidin-2-yl]amino}phenyl)-1H-1,2,3-triazol-1-yl]acetic acid]
9.5 nM | Cc1cc(Nc2nccc(C(F)F)n2)cc(-c2cn(C3CCCC(O)C3O)nn2)c1 (single isomer, unassigned) [Example 25.1, 3-(4-(3-((4-(Difluoromethyl)pyrimidin-2-yl)amino)-5-methylphenyl)-1H-1,2,3-triazol-1-yl)cyclohexane-1,2-diol]
635 nM | COc1ccc(OC)c(C(O)C(C)NC(=O)C(C)n2cc(-c3cc(C)cc(Nc4cc(C(F)(F)F)ccn4)n3)nn2)c1 (stereo not drawn) [Example 1.38, N-[2-(2,5-dimethoxyphenyl)-2-hydroxy-1-methylethyl]-2-[4-(4-methyl-6-{[4-(trifluoromethyl)pyridin-2-yl]amino}pyridin-2-yl)-1H-1,2,3-triazol-1-yl]propanamide]
85.6 nM | Cc1cc(Nc2cc(C)c(F)cn2)nc(-c2cn(CC(C)(O)C(C)(C)O)nn2)c1 (stereo not drawn) [Example 21.29, 1-(4-{6-[(5-fluoro-4-methylpyridin-2-yl)amino]-4-methylpyridin-2-yl}-1H-1,2,3-triazol-1-yl)-2,3-dimethylbutane-2,3-diol]
4.4 nM | Cc1cc(Nc2cc(C(F)(F)F)ccn2)nc(-c2cn(C(C(N)=O)c3ccc(F)cc3)nn2)c1 (stereo not drawn) [Example 1.17, 2-(4-fluorophenyl)-2-[4-(4-methyl-6-{[4-(trifluoromethyl)pyridin-2-yl]amino}pyridin-2-yl)-1H-1,2,3-triazol-1-yl]acetamide]
28.1 nM | Cc1cc(Nc2cc(OCCO)ccn2)nc(-c2cn(C(C)c3ccc(C(=O)O)cc3)nn2)c1 (stereo not drawn) [Example 2.4, 4-{1-[4-(6-{[4-(2-hydroxyethoxy)pyridin-2-yl]amino}-4-methylpyridin-2-yl)-1H-1,2,3-triazol-1-yl]ethyl}benzoic acid]
1 nM | Cc1cc(Nc2cc(C(F)(F)F)ccn2)nc(-c2cn(C3CCCCC(O)C3O)nn2)c1 (single isomer, unassigned) [Example 10.3, 3-[4-(4-methyl-6-{[4-(trifluoromethyl)pyridin-2-yl]amino}pyridin-2-yl)-1H-1,2,3-triazol-1-yl]cycloheptane-1,2-diol]
23.4 nM | Cc1ccnc(Nc2cc(C)cc(-c3cn(C[C@H](O)CC#N)nn3)n2)c1 [Example 5.14, (3R)-3-hydroxy-4-(4-{4-methyl-6-[(4-methylpyridin-2-yl)amino]pyridin-2-yl}-1H-1,2,3-triazol-1-yl)butanenitrile]
3.7 nM | Cc1cc(Nc2cc(C3CCC3)ccn2)nc(-c2cn(C(C)c3ccc(C(=O)O)cc3)nn2)c1 (stereo not drawn) [Example 2.10, 4-[1-(4-{6-[(4-cyclobutylpyridin-2-yl)amino]-4-methylpyridin-2-yl}-1H-1,2,3-triazol-1-yl)ethyl]benzoic acid]
367 nM | Cc1cc(Nc2cc(C(F)(F)F)ccn2)nc(-c2cn(C(C)C(=O)N3CCc4onc(-c5ccc(F)cc5)c4C3)nn2)c1 (stereo not drawn) [Example 1.39, 6-(1-{2-[3-(4-fluorophenyl)-6,7-dihydroisoxazolo[4,5-c]pyridin-5(4H)-yl]-1-methyl-2-oxoethyl}-1H-1,2,3-triazol-4-yl)-4-methyl-N-[4-(trifluoromethyl)pyridin-2-yl]pyridin-2-amine]
8.8 nM | Cc1cc(Nc2cc(C(F)(F)F)ccn2)nc(-c2cn(C(C)C(N)=O)nn2)c1 (stereo not drawn) [Example 1.25, 2-[4-(4-methyl-6-{[4-(trifluoromethyl)pyridin-2-yl]amino}pyridin-2-yl)-1H-1,2,3-triazol-1-yl]propanamide]
53.1 nM | Cc1cc(Nc2nccc(C(F)(F)F)n2)cc(-n2cc(CC(O)CO)nn2)c1 (stereo not drawn) [Example 15.7, 3-[1-(3-methyl-5-{[4-(trifluoromethyl)pyrimidin-2-yl]amino}phenyl)-1H-1,2,3-triazol-4-yl]propane-1,2-diol]
179 nM | COC(=O)[C@H]1CC[C@](O)(c2cn(-c3cc(C)cc(Nc4nccc(C(F)(F)F)n4)c3)nn2)CC1(C)C [Example 15.10, methyl (1S,4R)-4-hydroxy-2,2-dimethyl-4-[1-(3-methyl-5-{[4-(trifluoromethyl)pyrimidin-2-yl]amino}phenyl)-1H-1,2,3-triazol-4-yl]cyclohexanecarboxylate]
58.6 nM | COCC(O)Cn1cc(-c2cc(C)cc(Nc3nccc(C(F)(F)F)n3)c2)nn1 (racemic) [Example 5.53, 1-methoxy-3-[4-(3-methyl-5-{[4-(trifluoromethyl)pyrimidin-2-yl]amino}phenyl)-1H-1,2,3-triazol-1-yl]propan-2-ol]
32.9 nM | Cc1cc(Nc2nccc(C(F)(F)F)n2)cc(-c2cn(CCCN)nn2)c1 [Example 5.48, N-{3-[1-(3-aminopropyl)-1H-1,2,3-triazol-4-yl]-5-methylphenyl}-4-(trifluoromethyl)pyrimidin-2-amine]
2.2 nM | Cc1cc(Nc2cc(C(F)(F)F)ccn2)nc(-c2cn(Cc3cc[nH]n3)nn2)c1 [Example 5.111, 4-methyl-6-[1-(1H-pyrazol-3-ylmethyl)-1H-1,2,3-triazol-4-yl]-N-[4-(trifluoromethyl)pyridin-2-yl]pyridin-2-amine]
30 nM | Cc1cc(Nc2nccc(C(F)(F)F)n2)cc(-n2cc([C@]3(O)CC[C@@H](O)CC3)nn2)c1 [Example 15.17, cis-1-[1-(3-methyl-5-{[4-(trifluoromethyl)pyrimidin-2-yl]amino}phenyl)-1H-1,2,3-triazol-4-yl]cyclohexane-1,4-diol]
1.8 nM | Cc1cc(Nc2nccc(C(F)F)n2)cc(-c2cn(CC3CNC(=O)O3)nn2)c1 (single isomer, unassigned) [Example 7.4, 5-((4-(3-((4-(difluoromethyl)pyrimidin-2-yl)amino)-5-methylphenyl)-1H-1,2,3-triazol-1-yl)methyl)oxazolidin-2-one]
8.3 nM | Cc1cc(Nc2cc(C(F)(F)F)ccn2)nc(-c2cn(CCO)nn2)c1 [Example 5.91, 2-[4-(4-methyl-6-{[4-(trifluoromethyl)pyridin-2-yl]amino}pyridin-2-yl)-1H-1,2,3-triazol-1-yl]ethanol]
1.6 nM | Cc1cc(Nc2cc(C(F)F)ccn2)nc(-c2cn(CC3OC(=O)NC3C)nn2)c1 (single isomer, unassigned) [Example 7.14, 5-((4-(6-((4-(difluoromethyl)pyridin-2-yl)amino)-4-methylpyridin-2-yl)-1H-1,2,3-triazol-1-yl)methyl)-4-methyloxazolidin-2-one]
21.1 nM | Cc1cc(Nc2nccc(C(F)F)n2)cc(-c2cn(CC(C)(O)CC#N)nn2)c1 (single isomer, unassigned) [Example 27.2, 4-(4-(3-((4-(Difluoromethyl)pyrimidin-2-yl)amino)-5-methylphenyl)-1H-1,2,3-triazol-1-yl)-3-hydroxy-3-methylbutanenitrile]
11.1 nM | Cc1cc(Nc2ncc(F)c(C(F)F)n2)cc(-c2cn(CC3OC(=O)NC34CC4)nn2)c1 (single isomer, unassigned) [Example 7.33, 7-{[4-(3-{[4-(difluoromethyl)-5-fluoropyrimidin-2-yl]amino}-5-methylphenyl)-1H-1,2,3-triazol-1-yl]methyl}-6-oxa-4-azaspiro[2.4]heptan-5-one]
2.1 nM | Cc1cc(Nc2cc(C(F)(F)F)ccn2)nc(-c2cn(CC3CNC(=O)O3)nn2)c1 (racemic) [Example 5.84, 5-{[4-(4-methyl-6-{[4-(trifluoromethyl)pyridin-2-yl]amino}pyridin-2-yl)-1H-1,2,3-triazol-1-yl]methyl}-1,3-oxazolidin-2-one]
114 nM | Cc1cc(Nc2nccc(C(F)(F)F)n2)cc(-c2cn(CC(=O)N3COCC3(C)C)nn2)c1 [Example 5.68, N-(3-{1-[2-(4,4-dimethyl-1,3-oxazolidin-3-yl)-2-oxoethyl]-1H-1,2,3-triazol-4-yl}-5-methylphenyl)-4-(trifluoromethyl)pyrimidin-2-amine]
423 nM | COC(=O)[C@@H]1CCCN1C(=O)[C@H](C)n1cc(-c2cc(C)cc(Nc3cc(C(F)(F)F)ccn3)n2)nn1 [Example 1.56, methyl 1-{(2S)-2-[4-(4-methyl-6-{[4-(trifluoromethyl)pyridin-2-yl]amino}pyridin-2-yl)-1H-1,2,3-triazol-1-yl]propanoyl}prolinate]
